# Counter-ions that a name gives are not always drawn.
row,melting point [°C],Compound
1,101 to 103,"CCOc1nc(N)nc2c1ncn2[C@@H]1O[C@H](CO[P@]2(=O)OCC[C@H](c3cc(Cl)cc(Cl)c3)O2)[C@H]2OC(=O)O[C@]21C [Compound 128, 2(R)-(2-Amino-6-ethoxy-9(H)-purinyl)-4(R)-(4(R)-(3,5-dichlorophenyl)-2-oxo-1,3,2-dioxaphosphorinan-2(S)-yloxymethyl)-1(R)-methyl-7-oxo-3,6,8-trioxa-cis-bicyclo[3.3.0]octane]"
2,234 to 236,"C[C@@]12OC(=O)O[C@@H]1[C@@H](CO[P@@]1(=O)OCC[C@@H](c3cc(F)cc(F)c3)O1)O[C@H]2n1cnc2c(O)nc(N)nc21 [Compound 101, 2(R)-(2-Amino-6-hydroxy-9(H)-purinyl)-4(R)-(4(S)-(3,5-difluorophenyl)-2-oxo-1,3,2-dioxaphosphorinan-2-(R)-yloxymethyl)-1(R)-methyl-7-oxo-3,6,8-trioxa-cis-bicyclo[3.3.0]octane]"
3,105 to 107,"CCOc1nc(N)nc2c1ncn2[C@@H]1O[C@H](CO[P@@]2(=O)OCC[C@@H](c3ccccc3)O2)[C@H]2OC(=O)O[C@]21C [Compound 182, 2(R)-(2-Amino-6-ethoxy-9(H)-purinyl)-4(R)-(4(S)-phenyl-2-oxo-1,3,2-dioxaphosphorinan-2(R)-yloxymethyl)-1(R)-methyl-7-oxo-3,6,8-trioxa-cis-bicyclo[3.3.0]octane]"
4,88 to 90,"CCOc1nc(N)nc2c1ncn2[C@@H]1O[C@H](CO[P@@]2(=O)OCC[C@@H](c3cccc(F)c3)O2)[C@H]2OC(=O)O[C@]21C [Compound 124, 2(R)-(2-Amino-6-ethoxy-9(H)-purinyl)-4(R)-(4(S)-(3-fluorophenyl)-2-oxo-1,3,2-dioxaphosphorinan-2(R)-yloxymethyl)-1(R)-methyl-7-oxo-3,6,8-trioxa-cis-bicyclo[3.3.0]octane]"
5,82 to 84,"CCOc1nc(N)nc2c1ncn2[C@@H]1O[C@H](CO[P@@]2(=O)OCC[C@@H](c3cccc(Cl)c3)O2)[C@H]2OC(=O)O[C@]21C [Compound 120, 2(R)-(2-Amino-6-ethoxy-9(H)-purinyl)-4(R)-(4(S)-(3-chlorophenyl)-2-oxo-1,3,2-dioxaphosphorinan-2(R)-yloxymethyl)-1(R)-methyl-7-oxo-3,6,8-trioxa-cis-bicyclo[3.3.0]octane]"
6,77 to 80,"CCOc1nc(N)nc2c1ncn2[C@@H]1O[C@H](CO[P@@]2(=O)OCC[C@@H](c3cccc(Br)c3)O2)[C@H]2OC(=O)O[C@]21C [Compound 123, 2(R)-(2-Amino-6-ethoxy-9(H)-purinyl)-4(R)-(4(S)-(3-bromophenyl)-2-oxo-1,3,2-dioxaphosphorinan-2(R)-yloxymethyl)-1(R)-methyl-7-oxo-3,6,8-trioxa-cis-bicyclo[3.3.0]octane]"
7,101 to 103,"CCOc1nc(N)nc2c1ncn2[C@@H]1O[C@H](CO[P@@]2(=O)OCC[C@@H](c3cc(Cl)cc(Cl)c3)O2)[C@H]2OC(=O)O[C@]21C [Compound 127, 2(R)-(2-Amino-6-ethoxy-9(H)-purinyl)-4(R)-(4(S)-(3,5-dichlorophenyl)-2-oxo-1,3,2-dioxaphosphorinan-2(R)-yloxymethyl)-1(R)-methyl-7-oxo-3,6,8-trioxa-cis-bicyclo[3.3.0]octane]"
8,218 to 220,"C[C@@]12OC(=O)O[C@@H]1[C@@H](CO[P@@]1(=O)OCC[C@@H](c3cccc(C#N)c3)O1)O[C@H]2n1cnc2c(O)nc(N)nc21 [Compound 109, 2(R)-(2-Amino-6-hydroxy-9 (H)-purinyl)-4(R)-(4(S)-(3-cyanophenyl)-2-oxo-1,3,2-dioxaphosphorinan-2(R)-yloxymethyl)-1(R)-methyl-7-oxo-3,6,8-trioxa-cis-bicyclo[3.3.0]octane]"

# More lines, now with the values behind:
row,Compound,melting point [°C]
1,"CCOC(COc1nc(N)nc2c1ncn2[C@@H]1O[C@H](CO[P@@]2(=O)OCC[C@@H](c3cccc(Cl)c3)O2)[C@H]2OC(=O)O[C@]21C)OCC [Compound 149, 2(R)-(2-Amino-6-(2,2-diethoxyethoxy)-9(H)-purinyl)-4(R)-(4(S)-(3-chlorophenyl)-2-oxo-1,3,2-dioxaphosphorinan-2(R)-yloxymethyl)-1(R)-methyl-7-oxo-3,6,8-trioxa-cis-bicyclo[3.3.0]octane]",72 to 75
2,"CCC(CC)COc1nc(N)nc2c1ncn2[C@@H]1O[C@H](CO[P@@]2(=O)OCC[C@@H](c3cccc(Cl)c3)O2)[C@H]2OC(=O)O[C@]21C [Compound 143, 2(R)-(2-Amino-6-(2-ethylbutyloxy)-9(H)-purinyl)-4(R)-(4(S)-(3-chlorophenyl)-2-oxo-1,3,2-dioxaphosphorinan-2(R)-yloxymethyl)-1(R)-methyl-7-oxo-3,6,8-trioxa-cis-bicyclo[3.3.0]octane]",72 to 75
3,"CSCCCOc1nc(N)nc2c1ncn2[C@@H]1O[C@H](CO[P@@]2(=O)OCC[C@@H](c3cccc(Cl)c3)O2)[C@H]2OC(=O)O[C@]21C [Compound 130, 2(R)-(2-Amino-6-(3-methylthiopropyloxy)-9(H)-purinyl)-4(R)-(4(S)-(3-chlorophenyl)-2-oxo-1,3,2-dioxaphosphorinan-2(R)-yloxymethyl)-1(R)-methyl-7-oxo-3,6,8-trioxa-cis-bicyclo[3.3.0]octane]",79 to 82
4,"CC(C)(C)COc1nc(N)nc2c1ncn2[C@@H]1O[C@H](CO[P@@]2(=O)OCC[C@@H](c3cccc(Cl)c3)O2)[C@H]2OC(=O)O[C@]21C [Compound 147, 2(R)-(2-Amino-6-(2,2-dimethylpropyloxy)-9(H)-purinyl)-4(R)-(4(S)-(3-chlorophenyl)-2-oxo-1,3,2-dioxaphosphorinan-2(R)-yloxymethyl)-1(R)-methyl-7-oxo-3,6,8-trioxa-cis-bicyclo[3.3.0]octane]",88 to 91
5,"C[C@@]12OC(=O)O[C@@H]1[C@@H](CO[P@@]1(=O)OCC[C@@H](c3cccc(Cl)c3)O1)O[C@H]2n1cnc2c(OCC3CCC3)nc(N)nc21 [Compound 140, 2(R)-(2-Amino-6-cyclobutylmethoxy-9(H)-purinyl)-4(R)-(4(S)-(3-chlorophenyl)-2-oxo-1,3,2-dioxaphosphorinan-2(R)-yloxymethyl)-1(R)-methyl-7-oxo-3,6,8-trioxa-cis-bicyclo[3.3.0]octane]",92 to 94
6,"C[C@@]12OC(=O)O[C@@H]1[C@@H](CO[P@@]1(=O)OCC[C@@H](c3cccc(Cl)c3)O1)O[C@H]2n1cnc2c(OCC3CC3)nc(N)nc21 [Compound 121, 2(R)-(2-Amino-6-cyclopropylmethoxy-9(H)-purinyl)-4(R)-(4(S)-(3-chlorophenyl)-2-oxo-1,3,2-dioxaphosphorinan-2(R)-yloxymethyl)-1(R)-methyl-7-oxo-3,6,8-trioxa-cis-bicyclo[3.3.0]octane]",128 to 132
7,"C[C@@]12OC(=O)O[C@@H]1[C@@H](CO[P@@]1(=O)OCC[C@@H](c3cccc(Cl)c3)O1)O[C@H]2n1cnc2c(OCC3CC4CCC3C4)nc(N)nc21 (stereo partly drawn) [Compound 139, 2(R)-(2-Amino-6-(2-bicyclo[2.2.1]heptanylmethoxy)-9(H)-purinyl)-4(R)-(4(S)-(3-chlorophenyl)-2-oxo-1,3,2-dioxaphosphorinan-2(R)-yloxymethyl)-1(R)-methyl-7-oxo-3,6,8-trioxa-cis-bicyclo[3.3.0]octane]",99 to 101
8,"CCOc1nc(N)nc2c1ncn2[C@@H]1O[C@H](CO[P@@]2(=O)OCC[C@@H](c3cccc(Cl)c3)O2)[C@@H](OC(=O)[C@@H](N)C(C)C)[C@@]1(C)O (as salt: trifluoroacetate) [Compound 184, 2(R)-(2-Amino-6-ethoxy-9(H)-purinyl)-5(R)-(4(S)-(3-chlorophenyl)-2-oxo-1,3,2-dioxaphosphorinan-2(R)-yloxymethyl)-3(R)-hydroxy-3(R)-methyl-4(R)-L-valinyl-tetrahydrofuran]",128 to 130
9,"CC(C)C(=O)O[C@@H]1[C@@H](CO[P@@]2(=O)OCC[C@@H](c3cccc(Cl)c3)O2)O[C@@H](n2cnc3c(O)nc(N)nc32)[C@]1(C)O [Compound 117, 2(R)-(2-Amino-6-hydroxy-9(H)-purinyl)-5(R)-(4(S)-(3-chlorophenyl)-2-oxo-1,3,2-dioxaphosphorinan-2(R)-yloxymethyl)-3(R)-hydroxy-3(R)-methyl-4(R)-(2-methyl-1-oxopropoxy)-tetrahydrofuran]",> 200
10,"C[C@@]12OC(=O)O[C@@H]1[C@@H](CO[P@@]1(=O)OCC[C@@H](c3cccc(Cl)c3)O1)O[C@H]2n1cnc2c(OCC3CCCCC3)nc(N)nc21 [Compound 146, 2(R)-(2-Amino-6-cyclohexylmethoxy-9(H)-purinyl)-4(R)-(4(S)-(3-chlorophenyl)-2-oxo-1,3,2-dioxaphosphorinan-2(R)-yloxymethyl)-1(R)-methyl-7-oxo-3,6,8-trioxa-cis-bicyclo[3.3.0]octane]",101 to 103
11,"CC(C)CCOc1nc(N)nc2c1ncn2[C@@H]1O[C@H](CO[P@@]2(=O)OCC[C@@H](c3cccc(Cl)c3)O2)[C@H]2OC(=O)O[C@]21C [Compound 134, 2(R)-(2-Amino-6-(3-methylbutyloxy)-9(H)-purinyl)-4(R)-(4(S)-(3-chlorophenyl)-2-oxo-1,3,2-dioxaphosphorinan-2(R)-yloxymethyl)-1(R)-methyl-7-oxo-3,6,8-trioxa-cis-bicyclo[3.3.0]octane]",76 to 78
12,"C[C@@]12OC(=O)O[C@@H]1[C@@H](CO[P@@]1(=O)OCC[C@@H](c3cccc(Cl)c3)O1)O[C@H]2n1cnc2c(OCC3CCOCC3)nc(N)nc21 [Compound 129, 2(R)-(2-Amino-6-(4-tetrahydropyranylmethoxy)-9(H)-purinyl)-4(R)-(4(S)-(3-chlorophenyl)-2-oxo-1,3,2-dioxaphosphorinan-2(R)-yloxymethyl)-1(R)-methyl-7-oxo-3,6,8-trioxa-cis-bicyclo[3.3.0]octane]",105 to 108
13,"C[C@@]12OC(=O)O[C@@H]1[C@@H](CO[P@@]1(=O)OCC[C@@H](c3cccc(Cl)c3)O1)O[C@H]2n1cnc2c(OCCC3CCCCC3)nc(N)nc21 [Compound 131, 2(R)-(2-Amino-6-(2-cyclohexylethoxy)-9(H)-purinyl)-4(R)-(4(S)-(3-chlorophenyl)-2-oxo-1,3,2-dioxaphosphorinan-2(R)-yloxymethyl)-1(R)-methyl-7-oxo-3,6,8-trioxa-cis-bicyclo[3.3.0]octane]",93 to 95

# From patent US20140356325A1, “NOVEL 2'-C-METHYL NUCLEOSIDE DERIVATIVE COMPOUNDS” (Ligand Pharmaceuticals Incorporated, priority 2012, published 2014)
